Laboratory results taken from US9241976B2, “Use of HDL-related molecules to treat and prevent proinflammatory conditions” (THE REGENTS OF THE UNIVERSITY OF CALIFORNIA, priority 2011, dated 2016).

Legend:
CT26 cells [1] = test: Pulmonary metastasis in vivo: CT26 lung tumors in BALB/c mice; set-up: species or system mouse; conditions: CT26 via tail vein
Experimental: BALB/c mice were intravenously injected with 2×10^4 CT26 cells in 100 μL of PBS via tail vein injection and the mice were treated with bHDL at 10 mg/kg/day administered SQ for 3 weeks; or treated with bHDL at 100 mg/kg/day administered in a chow diet for 3 weeks. After 3 weeks treatment, the mice were sacrificed; lungs were harvested, weighed and fixed with Bouin's solution (Sigma). Tumor nodules on the lung surface were counted.
BALB/c mice were intravenously injected with 2×10^4 CT26 cells in […] of PBS via tail vein injection and the mice were treated with L-4F or sc-4F at 10 mg/kg/d administered subcutaneously for 3 weeks, or treated with sc-4F or L-4F or G* peptide at 100 mg/kg/d administered in a chow diet for 3 weeks. After 3 weeks treatment, the mice were sacrificed; lungs were harvested, weighed, and fixed with Bouin solution (Sigma). Tumor nodules on the lung surface were counted.

CT26 cells [2] = test: Cell-cycle analysis of CT26 cells by flow cytometry; assay type: cell-based, mouse; set-up: dose or concentration left out as unconfirmed; conditions: 48 hours
Experimental: CT26 cells were cultured in 6-well plates overnight and then serum starved for 48 hours. […] Cells were collected, washed with PBS, and fixed with 70% ice-cold methanol overnight at 4° C. The fixed cells were collected by centrifugation, washed with PBS, and resuspended in 0.3 mL of PBS containing […] RNaseA and […] propidium iodide, and subjected to flow cytometric cell-cycle analysis by FACScan from BD Biosciences.

cyclin D1 and cyclin A = test: Western blot of cyclin D1 and cyclin A in CT26 cells; assay type: cell-based, mouse
Experimental: Total cell proteins were collected after treatment in cell lysis buffer containing 0.1 mol/L NaCl, 5 mmol/L EDTA, 50 mmol/L sodium orthovanadate, 1% Triton X-100, and protease inhibitor tablet in 50 mmol/L Tris buffer (pH 7.5). Twenty micrograms of total proteins were separated by SDS-PAGE and transferred onto nitrocellulose membrane and followed by incubation with primary antibody at 4° C. in 5% skim milk and 0.1% Tween-20. Anti-cyclin D1 and anti-cyclin A rabbit polyclonal antibodies were used at 1:1,000 dilution, and anti-b-actin polyclonal antibody was used at 1:2,000 dilution.

CD31 = test: ID8 flank tumor model, CD31 staining of vessels; assay type: in vivo, mouse; conditions: C57BL/6J mice, 10 mg/kg s.c. daily for 3 weeks, vs control group
Experimental: Nine-week-old C57BL/6J female mice were given a 0.5-ml subcutaneous injection of 5×10^6 ID8 cells prepared as a single cell suspension in PBS mixed with an equal volume of cold Matrigel (BD Biosciences, San Jose, Calif.). After 2 weeks, mice started to receive scrambled 4F peptide (sc-4F) or L-4F (10 mg/kg) by subcutaneous injection at a site distant from the site where the ID8 cells were injected daily for 3 weeks. After 3 weeks, the mice were sacrificed for tumor collection and further analyses.
Frozen tumor tissues were sectioned at a thickness of 5 μm and fixed with cold acetone for 10 min at −20° C. The sections were blocked with 10% normal goat serum and 4% bovine serum albumin prepared in PBS for 3 h and immediately incubated with rabbit anti-mouse polyclonal HIF-1α antibody (1:200) (Abcam Inc.) or rat anti-mouse monoclonal CD31 antibody (1:25) (Abcam Inc.) overnight at 4° C. The sections were then incubated with corresponding biotinylated secondary antibodies (Vector Laboratories) for 30 min at room temperature followed by incubation with Vectastain ABC Elite reagents (Vector Laboratories) to visualize the staining. Finally, sections were lightly counterstained with hematoxylin, dehydrated, and coverslipped with Vecta-Mount solution (Vector Laboratories).

[3] = tested on: VEGF, glucose transporter 1, and aldolase-A; test: HIF-1α target gene mRNA, real-time RT-PCR in OV2008 cells; assay type: cell-based, human; conditions: 10 μg/ml pretreatment 1 h
Experimental: (§1) Total RNA was extracted from cells by using a PureLink RNA Mini Kit (Invitrogen). The quantity and quality of RNA were assessed by using a SmartSpec 3000 Spectrophotometer (Bio-Rad Laboratories, Hercules, Calif.). cDNA was synthesized by using the High Capacity cDNA Reverse Transcription Kit (Applied Biosystems, Foster City, Calif.) according to the manufacturer's instructions. PCRs were performed by using the CFX96 realtime PCR system (Applied Biosystems). The cycling conditions were as follows: 3 min at 95° C. followed by 40 cycles of 95° C., 10 s; 60° C., 10 s; 72° C., 30 s followed by a final extension at 72° C. for 10 min. Each 25-μl reaction contained 0.4 μg of cDNA, 12.5 μl of SYBR Green qPCR SuperMix (Bio-Rad Laboratories), and 250 nM forward and reverse primers in nuclease-free water. […]

HIF-1α mRNA = test: HIF-1α mRNA, real-time RT-PCR; assay type: cell-based, human
Experimental: as §1

CT26 cells [4] = conditions: BALB/c, mouse, 48 hours
Experimental: CT26 cell line derived from N-nitroso-N-methyl urethane-induced mouse colon carcinoma of BALB/c origin was purchased from the American Type Culture Collection (ATCC). CT26 cells (2,000 cells per well) were first cultured in complete medium in 96-well culture plates, and 24 hours later the medium was replaced with serum free medium. Following an overnight incubation, the cells were either treated with vehicle (control), or treated with 10 μg/mL of either bHDL. The bHDL were dissolved in H2O. Cells were incubated for an additional 48 hours and assayed for viability using the MTS assays kit (Promega) according to the manufacturer's protocol.
CT26 cell line derived from N-nitroso-N-methyl urethane-induced mouse colon carcinoma of BALB/c origin was purchased from the American Type Culture Collection. CT26 cells (2,000 cells per well) were first cultured in complete medium in 96-well culture plates, and 24 hours later the medium was replaced with serum-free medium. Following an overnight incubation, the cells were either treated with vehicle (control) or treated with 10 mg/mL of either L-4F or G* peptide. The peptides were dissolved in H2O. Cells were incubated for an additional 48 hours and assayed for viability using the MTS assay kit (Promega) according to the manufacturer's protocol.

[5] = tested on: mouse ovarian cancer cells (ID-8 cells); conditions: reference (17); cited from earlier work
[6] = reference (17); cited from earlier work
[7] = tested on: HDL anti-inflammatory properties; conditions: 0.43 mg/kg daily, intravenous infusion 7 days or subcutaneously 28 days, patients with coronary heart disease (Watson and colleagues); cited from earlier work
[8] = 10 mg/kg/d subcutaneously for 3 weeks
[9] = 100 mg/kg/d in chow diet for 3 weeks

For “Ac-DWFKAFYDKVAEKFKEAF-NH2 [L-4F, Ac-D-W-F-K-A-F-Y-D-K-V-A-E-K-F-K-E-A-F-NH2]”, the lung weights (CT26 cells [1]; [8]) was 225 mg, the “tumor numbers counted on the lung surface” value (CT26 cells [1]; [8]) was 18 and the lung weights (CT26 cells [1]; [9]) was 238 mg. The “tumor numbers on the lung surface” value (CT26 cells [1]; [9]) was 12, the cell-cycle profile (CT26 cells [2]) was “induced an increase in G0/G1 phase and arrest in S phase” and the “expression of cyclin D1 and cyclin A” value (cyclin D1 and cyclin A) was “significantly lower”. The “number of vessels in tumors” value (CD31) was “reduction in the number of vessels”, the “CoCl2- and insulin-induced increase in mRNA levels of HIF-1α target genes” value [3] was “abrogated” and the “basal level of HIF-1α mRNA” value (HIF-1α mRNA) was “no effect”. For the same substance, the “Cell viability reduced by, compared with control” value (CT26 cells [4]; 10 μg/mL) was “more than 20%”, the “Cell viability reduced, compared with control” value (CT26 cells [4]; 10 mg/mL) was “more than 25%” and the viability and proliferation [5] was “reduced”. For the same substance, the “binding of LPA” value [6] was “binds” and the HDL anti-inflammatory properties [7] was “did not achieve any improvement”.
